The values that follow come from US20260167627A1, “NEW SOLID FORMS OF (3R)-N-[2-CYANO-4-FLUORO-3-(3-METHYL-4-OXO-QUINAZOLIN-6-YL)OXY-PHENYL]-3-FLUORO-PYRROLIDINE-1-SULFONAMIDE” (Hoffmann-La Roche Inc., priority 2023, published 2026).

For data set [1] the following is noted: cited from earlier work.
Data set [2] in a line: Thermodynamic stability of the solid form. The class given is physicochemical.
Data set [3] in a line: Moisture sorption/desorption (DVS), hygroscopicity. The class given is physicochemical. As for the experimental part: Moisture sorption/desorption data was collected on a DVS Advantage, a DVS Adventure, or a DVS Intrinsic (SMS Surface Measurements Systems) moisture balance system. The sorption/desorption isotherms were measured stepwise in a range from 0%-RH to 90%-RH at typically 25° C. A weight change of typically <0.001%/min was chosen as criterion to switch to the next level of relative humidity (with a maximum equilibration time of typically 24 hours, if the weight change criterion was not met). The data were corrected for the initial moisture content of the samples by taking the weight after drying of the samples at 0%-RH as zero point.
The hygroscopicity of a given substance was characterized (by close analogy with the European Pharmacopoeia) by the increase in mass when the relative humidity was raised from 0%-RH to 90%-RH:
European Pharmacopoeia-8″ Edition (2014), Chapter 5.11.

A short description of data set [4]: Thermogravimetric analysis (TGA). The class given is physicochemical. The conditions noted are these: heating rate 5 K/min under nitrogen, FIG. 3.
Procedure: Thermogravimetric analyses (TGA) were performed on a Mettler-Toledo™ thermogravimetric analyzer (TGA/DSC1 or TGA/DSC3+). System suitability tests were performed with Hydranal as reference substance and calibrations using Aluminum and Indium as reference substances. For the thermogravimetric analyses, approx. 5 to 15 mg (about 7.197 mg of Form B) of sample were placed in aluminum pans, accurately weighed and hermetically closed with perforation lids. Prior to measurement, the lids were automatically pierced resulting in approx. 0.5 mm pin holes. The samples were then heated under a flow of nitrogen of about 50 mL/min using a heating rate of 5 K/min to a maximum temperature of typically 350° C.

For the compound `CC(C)(C)c1nc(-c2cccc(NS(=O)(=O)c3c(F)cccc3F)c2F)c(-c2ccnc(N)n2)s1` [Dabrafenib], in data set [1], the brain permeability result is on record as “very poor”.

Take `COC(=O)N[C@@H](C)CNc1nccc(-c2cn(C(C)C)nc2-c2cc(Cl)cc(NS(C)(=O)=O)c2F)n1` [Encorafenib]: in data set [1], the brain permeability result was “very poor”. As for `Cn1cnc2ccc(Oc3c(F)ccc(NS(=O)(=O)N4CC[C@@H](F)C4)c3C#N)cc2c1=O` [Form B, (3R)—N-[2-cyano-4-fluoro-3-(3-methyl-4-oxo-quinazolin-6-yl)oxy-phenyl]-3-fluoro-pyrrolidine-1-sulfonamide], in data set [2], the “thermodynamic stability of solid form” value is reported as “thermodynamically stable form”. For the same compound, the “water uptake according to European Pharmacopeia” value in data set [3] (0%-RH to 90%-RH) is less than 0.2%. For the same compound, the hygroscopicity class entry in data set [3] (relative humidity raised from 0%-RH to 90%-RH, typically 25° C.) is on record as “non-hygroscopic (weight increase Dm < 0.2%)”. For the same compound, the “mass loss (TGA)” value in data set [4] was 0.087%. For the compound `CCCS(=O)(=O)Nc1ccc(F)c(C(=O)c2c[nH]c3ncc(-c4ccc(Cl)cc4)cc23)c1F` [Vemurafenib], in data set [1], the brain permeability entry is reported as “very poor”.
